Source: US20240317760A1, “TRK KINASE INHIBITOR COMPOUND AND USE THEREOF” (HENAN MEDINNO PHARMACEUTICAL TECHNOLOGY CO., LTD., priority 2021, published 2024)

Legend:
Format in all cases: biochemical
TRKB = biological target: T1, TRKB (Homo sapiens, UniProt Q16620); experiment: Determination of inhibitory activity against TRKB kinase (ADP-Glo Kinase Assay); conditions: ATP 20 μM, Poly (4:1 Glu, Tyr) Peptide 0.03 mg/ml
T1 construct: purchased SignalChem N17-11G
Experimental: (§1) Assay: Determination of Inhibitory Activity Against TRKA/B/C Kinases
(§2) 1× volume of 5× kinase reaction buffer and 4× volume of water; 5 mM MgCl2; and 1 mM DTT.
(§3) • 1). Gradiently diluting a compound 4-fold in a dilution plate with DMSO, with a starting compound concentration of 1000 nM. • 2). Diluting the compound 50-fold into 1× kinase reaction buffer and shaking it on a shaker for 20 minutes. • 3). Formulating 2× kinase with 1× of enzyme reaction buffer. • 4). Adding 2 μl kinase (formulated in step 3) to each well of the reaction plate. • 5). Adding 1 μl of the compound diluted in buffer to each well, sealing the plate with a sealing membrane and centrifuging the plate at 1000 g for 30 seconds and leaving it at room temperature for 10 minutes. • 6). Formulating 4×ATP & sub mixture with 1× enzyme reaction buffer and adding 1 μl of 4×ATP & sub mixture to the reaction plate. • 7). Sealing the plate with a sealing membrane and centrifuging the plate at 1000 g for 30 seconds and allowing it to react at room temperature for 60 minutes. • 8). Transferring 4 μl of ADP-Glo to 384 reaction plate and centrifuging the plate at 1000 rpm/min for 1 min, and then incubating it at 25° C. for 40 min. • 9). Transferring 8 μl of Detection solution to 384 reaction plate and centrifuging the plate at 1000 rpm/min for 1 min and incubating it at 25° C. for 40 min. • 10) Reading the RLU (Relative luminescence unit) signal using a Biotek multifunctional plate reader. The signal intensity was used to characterize the activity degree of kinase.
(§4) The IC50 (half inhibition concentration) of a compound was obtained using the following non-linear fitting equation, wherein data analysis was performed using Graphpad 6.0 software.
(§5) Y=Bottom+(Top−Bottom)/(1+10^((Log IC50−X)*Hill Slope)) • X: log value of compound concentration; and Y: inhibition rate (% inhibition)
(§6) Data were exported from Biotek and analyzed manually. The ratios were converted to inhibition rates and IC50 was calculated by Prism GraphPad 6.0 from the inhibition rates. IC50 was calculated again by the ratios to verify accuracy of the results.

TRKA = biological target: T2, TRKA (Homo sapiens, UniProt P04629); experiment: Determination of inhibitory activity against TRKA kinase (ADP-Glo Kinase Assay); conditions: ATP 5 μM, Poly (4:1 Glu, Tyr) Peptide 0.03 mg/ml
T2 construct: purchased Carna 08-186
Experimental: as §1, §2, §3, §4, §5, §6

TRKC = biological target: T3, TRKC (Homo sapiens, UniProt Q16288); experiment: Determination of inhibitory activity against TRKC kinase (ADP-Glo Kinase Assay); conditions: ATP 5 μM, Poly (4:1 Glu, Tyr) Peptide 0.03 mg/ml
T3 construct: purchased Carna 08-196
Experimental: as §1, §2, §3, §4, §5, §6

T2 sequence (P04629 33-796): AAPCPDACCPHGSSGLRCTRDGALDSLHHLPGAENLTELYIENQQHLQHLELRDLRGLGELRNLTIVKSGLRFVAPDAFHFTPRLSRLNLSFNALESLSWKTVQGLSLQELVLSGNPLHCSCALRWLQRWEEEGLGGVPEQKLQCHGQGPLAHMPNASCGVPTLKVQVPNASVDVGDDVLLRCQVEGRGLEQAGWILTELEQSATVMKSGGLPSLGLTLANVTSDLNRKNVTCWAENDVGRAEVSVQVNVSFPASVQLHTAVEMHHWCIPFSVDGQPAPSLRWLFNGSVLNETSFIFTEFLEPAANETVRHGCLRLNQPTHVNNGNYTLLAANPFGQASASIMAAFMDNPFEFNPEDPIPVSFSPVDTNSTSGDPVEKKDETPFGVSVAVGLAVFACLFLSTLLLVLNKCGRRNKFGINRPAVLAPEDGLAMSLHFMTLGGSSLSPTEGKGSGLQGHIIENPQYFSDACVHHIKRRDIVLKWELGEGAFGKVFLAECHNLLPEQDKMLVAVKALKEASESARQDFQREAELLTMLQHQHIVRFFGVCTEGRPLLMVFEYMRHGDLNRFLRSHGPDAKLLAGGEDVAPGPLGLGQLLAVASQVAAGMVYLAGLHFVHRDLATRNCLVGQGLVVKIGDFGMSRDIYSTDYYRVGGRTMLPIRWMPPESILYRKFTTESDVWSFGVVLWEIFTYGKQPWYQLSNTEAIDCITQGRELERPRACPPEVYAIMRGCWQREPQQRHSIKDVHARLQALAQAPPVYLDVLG
T3 sequence (Q16288 32-839): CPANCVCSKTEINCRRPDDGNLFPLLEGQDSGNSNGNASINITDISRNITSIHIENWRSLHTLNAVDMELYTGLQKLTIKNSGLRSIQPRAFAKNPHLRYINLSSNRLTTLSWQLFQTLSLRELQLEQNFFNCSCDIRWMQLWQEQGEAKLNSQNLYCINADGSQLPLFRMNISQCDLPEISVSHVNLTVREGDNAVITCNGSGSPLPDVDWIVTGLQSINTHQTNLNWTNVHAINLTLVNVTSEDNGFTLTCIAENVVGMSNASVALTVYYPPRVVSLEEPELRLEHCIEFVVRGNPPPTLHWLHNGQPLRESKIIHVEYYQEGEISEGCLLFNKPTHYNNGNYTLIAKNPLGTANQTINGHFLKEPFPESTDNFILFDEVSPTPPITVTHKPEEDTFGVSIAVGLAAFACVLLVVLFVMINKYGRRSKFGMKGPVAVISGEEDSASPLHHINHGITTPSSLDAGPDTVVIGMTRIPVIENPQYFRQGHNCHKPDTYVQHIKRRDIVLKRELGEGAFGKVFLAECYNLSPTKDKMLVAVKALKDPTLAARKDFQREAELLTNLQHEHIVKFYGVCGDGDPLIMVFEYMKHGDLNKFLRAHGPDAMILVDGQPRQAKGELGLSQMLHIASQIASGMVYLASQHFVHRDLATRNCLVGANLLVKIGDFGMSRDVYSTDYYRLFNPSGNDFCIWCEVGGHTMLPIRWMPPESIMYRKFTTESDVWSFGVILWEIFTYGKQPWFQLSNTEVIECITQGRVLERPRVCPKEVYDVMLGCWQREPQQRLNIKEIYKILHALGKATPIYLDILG
T1 sequence (Q16620 32-822): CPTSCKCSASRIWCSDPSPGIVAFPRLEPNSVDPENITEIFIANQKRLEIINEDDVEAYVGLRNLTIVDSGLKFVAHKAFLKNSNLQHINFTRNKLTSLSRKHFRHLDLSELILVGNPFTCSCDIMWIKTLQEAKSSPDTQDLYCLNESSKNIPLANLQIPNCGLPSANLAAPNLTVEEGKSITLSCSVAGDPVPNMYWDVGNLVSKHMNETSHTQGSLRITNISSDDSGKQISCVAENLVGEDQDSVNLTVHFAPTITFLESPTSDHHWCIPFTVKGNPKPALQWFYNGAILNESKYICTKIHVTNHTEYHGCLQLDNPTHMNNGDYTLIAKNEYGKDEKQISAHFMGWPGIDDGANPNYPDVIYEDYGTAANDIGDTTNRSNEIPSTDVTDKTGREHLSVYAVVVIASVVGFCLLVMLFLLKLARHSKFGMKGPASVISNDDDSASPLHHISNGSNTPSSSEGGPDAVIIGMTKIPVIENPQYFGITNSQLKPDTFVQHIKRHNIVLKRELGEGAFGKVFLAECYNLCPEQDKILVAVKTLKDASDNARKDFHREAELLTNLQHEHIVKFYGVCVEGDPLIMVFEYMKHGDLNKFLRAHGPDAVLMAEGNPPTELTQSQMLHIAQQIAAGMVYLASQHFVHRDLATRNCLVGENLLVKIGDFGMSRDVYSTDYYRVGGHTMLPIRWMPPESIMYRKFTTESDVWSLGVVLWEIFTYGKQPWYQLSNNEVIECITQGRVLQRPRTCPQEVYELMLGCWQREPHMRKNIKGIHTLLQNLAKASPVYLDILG

Row | SMILES | IC50 (TRKB) [nM] | IC50 (TRKA) [nM] | IC50 (TRKC) [nM]
1 | CC(Oc1ccc2[nH]nc(-c3nc4c([nH]3)CN(CC3CCCNC3)C4)c2c1)c1cc(F)cc(F)c1 (stereo not drawn) [Example 24, 5-(1-(3,5-Difluorophenyl)ethoxy)-3-(5-(piperidin-3-ylmethyl)-1,4,5,6-tetrahydropyrrolo[3,4-d]imidazol-2-yl)-1H-indazole] | 5.3 | 1.5 | 2.2
2 | CC(Oc1ccc2[nH]nc(-c3nc4c([nH]3)CN(CC3CCCCN3)C4)c2c1)c1cc(F)cc(F)c1 (stereo not drawn) [Example 25, 5-(1-(3,5-Difluorophenyl)ethoxy)-3-(5-(piperidin-2-ylmethyl)-1,4,5,6-tetrahydropyrrolo[3,4-d]imidazol-2-yl)-1H-indazole] | 6.8 | 1.8 | 1.6
3 | CC(Oc1ccc2[nH]nc(-c3nc4c([nH]3)CN(CC3CN(C)C3)C4)c2c1)c1cc(F)cc(F)c1 (stereo not drawn) [Example 26, 5-(1-(3,5-Difluorophenyl)ethoxy)-3-(5-((1-methylazetidin-3-yl)methyl)-1,4,5,6-tetrahydropyrrolo[3,4-d]imidazol-2-yl)-1H-indazole] | 5.5 | 2.8 | 2
4 | CC(Oc1ccc2[nH]nc(-c3nc4c([nH]3)CN(CC3CCN(C5CCC5)CC3)C4)c2c1)c1cc(F)cc(F)c1 (stereo not drawn) [Example 27, 3-(5-((1-Cyclobutylpiperidin-4-yl)methyl)-1,4,5,6-tetrahydropyrrolo[3,4-d]imidazol-2-yl)-5-(1-(3,5-difluorophenyl)ethoxy)-1H-indazole] | 3.1 | 0.42 | 3.5
5 | CC(Oc1ccc2[nH]nc(-c3nc4c([nH]3)CN(CC3(C)CCN(C(C)C)CC3)C4)c2c1)c1cc(F)cc(F)c1 (stereo not drawn) [Example 28] | 3.9 | 0.53 | 1.4
6 | CC(Oc1ccc2[nH]nc(-c3nc4c([nH]3)CN(C(=O)N3CCN(C)CC3)C4)c2c1)c1cc(F)cc(F)c1 (stereo not drawn) [Example 29, (2-(5-(1-(3,5-Difluorophenyl)ethoxy)-1H-indazol-3-yl)-4,6-dihydropyrrolo[3,4-d]imidazol-5(1H)-yl)(4-methylpiperazin-1-yl)ketone] | 2.2 | 1.5 | 1.8
7 | CC(Oc1ccc2[nH]nc(-c3nc4c([nH]3)CN(C(=O)OC3CCN(C)C3)C4)c2c1)c1cc(F)cc(F)c1 (stereo not drawn) [Example 30, 1-Methylpyrrolidin-3-yl 2-(5-(1-(3,5-difluorophenyl)ethoxy)-1H-indazol-3-yl)-4,6-dihydropyrrolo[3,4-d]imidazole-5(1H)-carboxylate] | 2 | 0.94 | 1.2
8 | CC(Oc1ccc2[nH]nc(-c3nc4c([nH]3)CN(C(=O)OC3CN(C)C3)C4)c2c1)c1cc(F)cc(F)c1 (stereo not drawn) [Example 31, 1-Methylazetidin-3-yl 2-(5-(1-(3,5-difluorophenyl)ethoxy)-1H-indazol-3-yl)-4,6-dihydropyrrolo[3,4-d]imidazole-5(1H)-carboxylate] | 4.3 | 1.1 | 1.1
9 | C[C@@H](Oc1ccc2[nH]nc(-c3nc4c([nH]3)CN(CC3CCN(C)CC3)C4)c2c1)c1cc(F)cc(F)c1 [Example 32] | 0.63 | 0.23 | 0.43
10 | CC(Oc1ccc2[nH]nc(-c3nc4c([nH]3)CN(C(=O)OC3CCCN(C)C3)C4)c2c1)c1cc(F)cc(F)c1 (stereo not drawn) [Example 33, 1-Methylpiperidin-3-yl 2-(5-(1-(3,5-difluorophenyl)ethoxy)-1H-indazol-3-yl)-4,6-dihydropyrrolo[3,4-d]imidazole-5(1H)-carboxylate] | 4.1 | 0.46 | 1.2
11 | CC(Oc1ccc2[nH]nc(-c3nc4c([nH]3)CN(C(C)C3CN(C)C3)C4)c2c1)c1cc(F)cc(F)c1 (stereo not drawn) [Example 34, 5-(1-(3,5-Difluorophenyl)ethoxy)-3-(5-(1-(1-methylazetidin-3-yl)ethyl)-1,4,5,6-tetrahydropyrrolo[3,4-d]imidazol-2-yl)-1H-indazole] | 2 | 4.6 | 4.5
12 | CCN1CCC(N2Cc3nc(-c4n[nH]c5ccc(OC(C)c6cc(F)cc(F)c6)cc45)[nH]c3C2)CC1 (stereo not drawn) [Example 38, 5-(1-(3,5-Difluorophenyl)ethoxy)-3-(5-(1-ethylpiperidin-4-yl)-1,4,5,6-tetrahydropyrrolo[3,4-d]imidazol-2-yl)-1H indazole] | 1.9 | 4.1 | 3.6
13 | CC(Oc1ccc2[nH]nc(-c3nc4c([nH]3)CN(C3CC5(C3)CN(C)C5)C4)c2c1)c1cc(F)cc(F)c1 (stereo not drawn) [Example 39, 5-(1-(3,5-Difluorophenyl)ethoxy)-3-(5-(2-methyl-2-azaspiro[3.3]heptan-6-yl)-1,4,5,6-tetrahydropyrrolo[3,4-d]imidazol-2-yl)-1H-indazole] | 1 | 6.8 | 2.3
14 | CC(Oc1ccc2[nH]nc(-c3nc4c([nH]3)CN(C3CCN(C)C3)C4)c2c1)c1cc(F)cc(F)c1 (stereo not drawn) [Example 41, 5-(1-(3,5-Difluorophenyl)ethoxy)-3-(5-(1-methylpyrrolidin-3-yl)-1,4,5,6-tetrahydropyrrolo[3,4-d]imidazol-2-yl)-1H indazole] | 3 | 7.4 | 7.7
15 | CC(Oc1ccc2[nH]nc(-c3nc4c([nH]3)CN(CC3CCCN3)C4)c2c1)c1cc(F)cc(F)c1 (stereo not drawn) [Example 42, 5-(1-(3,5-Difluorophenyl)ethoxy)-3-(5-(pyrrolidin-2-ylmethyl)-1,4,5,6-tetrahydropyrrolo[3,4-d]imidazol-2-yl)-1H-indazole] | 1.1 | 1 | 1.5
16 | CCN1CCCC(N2Cc3nc(-c4n[nH]c5ccc(OC(C)c6cc(F)cc(F)c6)cc45)[nH]c3C2)C1 (stereo not drawn) [Example 43, 5-(1-(3,5-Difluorophenyl)ethoxy)-3-(5-(1-ethylpiperidin-3-yl)-1,4,5,6-tetrahydropyrrolo[3,4-d]imidazol-2-yl)-1H indazole] | 1.4 | 1.9 | 2.9
17 | CC(Oc1ccc2[nH]nc(-c3nc4c([nH]3)CN(C3CC(N(C)C)C3)C4)c2c1)c1cc(F)cc(F)c1 (stereo not drawn) [Example 44] | 0.64 | 1.4 | 1.8
18 | CC(Oc1ccc2[nH]nc(-c3nc4c([nH]3)CN(C3CCCC(N(C)C)C3)C4)c2c1)c1cc(F)cc(F)c1 (stereo not drawn) [Example 45, 3-(2-(5-(1-(3,5-difluorophenyl)ethoxy)-1H-indazol-3-yl)-4,6-dihydropyrrolo[3,4-d]imidazol-5(1H)-yl)-N,N-dimethyl cyclohexan-1-amine] | 0.83 | 1.6 | 1.7
19 | CC(Oc1ccc2[nH]nc(-c3nc4c([nH]3)CN(C3CCC(N(C)C)C3)C4)c2c1)c1cc(F)cc(F)c1 (stereo not drawn) [Example 46, 3-(2-(5-(1-(3,5-Difluorophenyl)ethoxy)-1H-indazol-3-yl)-4,6-dihydropyrrolo[3,4-d]imidazol-5(1H)-yl)-N,N-dimethyl cyclopentan-1-amine] | 1.4 | 10.6 | 2.9
20 | CC(Oc1ccc2[nH]nc(-c3nc4c([nH]3)CN(CC3CCN(C)CC3)C4)c2c1)c1cc(F)cc(C#N)c1 (stereo not drawn) [Example 47] | 8.9 | 14.2 | 8.6
21 | CCC(Oc1ccc2[nH]nc(-c3nc4c([nH]3)CN(CC3CCN(C)CC3)C4)c2c1)c1cc(F)cc(F)c1 (stereo not drawn) [Example 48, 5-(1-(3,5-Difluorophenyl)propoxy)-3-(5-((1-methylpiperidin-4-yl)methyl)-1,4,5,6-tetrahydropyrrolo[3,4-d]imidazol-2-yl)-1 H-indazole] | 4.2 | 4.5 | 6.1
